The text below walks through data of patent US20090022821A1, “COMPOSITIONS FROM WAX MYRTLE FOR THE TREATMENT OF CANCER, CARDIOVASCULAR AND INFLAMMATORY DISEASES” (priority 2007, published 2009).

The subject of assay [1] is Aortic Smooth Muscle Cells (A7r5). The assay is described as follows: Methylene Blue Cell Proliferation assay, Aortic Smooth Muscle Cells (A7r5). It counts as cell-based, rat. As to conditions: 3 days, methylene blue staining, serum free medium, FIG. 3. The method, then:
Inhibition of Proliferation of Aortic Smooth Muscle Cells (A7r5) by wax myrtle extract: The Methylene Blue Cell Proliferation assay assess growth inhibition in a cell-based proliferation assay using protein staining as an estimate of relative cell number. For assessment of cell-based potency, A7r5 (20,000 cells/well) were plated in 96-well plates in the growth media. After 24 h, cells were exposed to compounds at different concentrations. A final concentration of 0.2% DMSO was added to the growth media to keep the compounds in solution. After 3 days, relative cell numbers were estimated using methylene blue staining. The absorbance at 620 nm was read in a microplate reader. Data were analyzed using curve-fitting macros written for Microsoft Excel. Concentrations with IC50 were interpolated using the equation: y=Vmax×[1−(x^n/(K^n+x^n))], where “K” is equal to IC50.

For assay [2] the test system is unchanged. In words: Induction of apoptosis by Cell Death ELISA (cytoplasmic histone-DNA fragments) in A7r5 cells. As to conditions: 24 h treatment, serum free medium, FIG. 4. Format: cell-based, rat. The method, then: Induction of Apoptosis in Aortic Smooth Muscle Cells (A7r5) by wax myrtle extract and myriceric acid,: Quantitation of apoptotic cell death was determined by Cell Death ELISA (Roche Biochemicals) that measures cytoplasmic histone-DNAfragments produced during apoptosis. Briefly, A7r5 cells (5×10^3/well)were grown in 96-well plates and treated, in triplicates, for 24 h with the indicated doses of wax myrtle extract and myriceric acid A. After treatment, the 96-well plates were centrifuged (200×g) for 10 min. The supernatant was discarded, lysis buffer was added, and samples were incubated at room temperature. Lysates were transferred to reaction wells and incubated with anti-histone biotin and anti-DNA peroxidase antibodies and incubated at room temperature for 2 h. After three washes, the peroxidase substrate was added to each well, and the plates were read at 405 nm after 15-min incubation. The enrichment of histone-DNAfragments treated cells is expressed as absorbance at 405 nm.

For assay [3], the system named is ET-1-induced [Ca++] flux in rat aortic smooth muscle cells A7r5. As to conditions: reference (23), cited from earlier work.
For assay [4], the target named is T1, ET receptor, rat aortic smooth muscle cells (Rattus norvegicus, UniProt P26684).
T1 construct: endogenous in cells; host or cells: rat aortic smooth muscle cells
T1 sequence (P26684 21-426): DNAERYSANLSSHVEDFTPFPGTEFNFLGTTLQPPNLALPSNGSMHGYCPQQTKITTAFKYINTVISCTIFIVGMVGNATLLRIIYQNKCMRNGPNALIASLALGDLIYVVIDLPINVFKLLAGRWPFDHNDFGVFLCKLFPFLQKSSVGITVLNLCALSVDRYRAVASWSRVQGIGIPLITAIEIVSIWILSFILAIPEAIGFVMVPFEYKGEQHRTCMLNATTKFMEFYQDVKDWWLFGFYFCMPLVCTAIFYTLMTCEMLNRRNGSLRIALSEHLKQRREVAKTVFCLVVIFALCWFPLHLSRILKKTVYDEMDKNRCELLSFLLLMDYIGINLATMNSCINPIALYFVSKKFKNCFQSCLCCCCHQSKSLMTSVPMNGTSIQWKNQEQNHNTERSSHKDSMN
As to conditions: reference (23), cited from earlier work.

pIC50, pKi: −log10 of the molar value.

In the case of Myriceric acid A, in assay [1], the “estimated IC50, growth inhibition of A7r5” value was 0.87±0.30 […]μg/ml. Moreover, in assay [2], the “apoptosis, enrichment of histone-DNA fragments (absorbance at 405 nm)” value is on record as “dose-dependent apoptosis”. Further, the pIC50 (commonly the negative decadic logarithm of the IC50, by convention in mol/L) in assay [3] (repeated as I50 for block of ET signaling pathway, read-out: IC50, inhibition of ET-1-induced [Ca++] flux) is 7.96. Moreover, the “IC50, inhibition of ET-1-induced [Ca++] flux” value in assay [3] was 0.0075 µg/mL. Besides, the “Ki, binding of radiolabeled ET to rat aortic smooth muscle cells” value in assay [4] is 0.04 µg/mL. Also, the negative-log Ki (pKi) (commonly the Ki on a negative log10 scale, so that one unit is a factor of ten) in assay [4] (read-out: Ki, binding of radiolabeled ET to rat aortic smooth muscle cells) was 7.18.
